Data: patent publication US20240090503A1, “FUNGICIDAL OXADIAZOLES AND THEIR MIXTURES” (FMC CORPORATION, priority 2020, published 2024)
Read-outs that look alike come from different tables or passages of the source.

Experiments:
Assay type in all cases: in vivo
[1] = system: Phakopsora pachyrhizi (the causal agent of Asian soybean rust); assay: Test A: preventive spray on soybean seedlings, Asian soybean rust, visual disease rating; conditions: Phakopsora pachyrhizi, 216 h, soybean seedlings, 100 = 100% disease control, 0 = no control; for pest or weed control at 10 µg/mL: test suspension 10 ppm, read-out: Test A disease control rating
Procedure, shortened: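 Compound in acetone/water (50/50) with 250 ppm PEG400 sprayed to run-off on soybean seedlings; inoculated next day with Phakopsora pachyrhizi spores. Held 24 h at 22° C in saturated atmosphere, then 8 days in a 22° C growth chamber before visual rating as % disease control relative to controls.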

[2] = system: Puccinia recondita f. sp. tritici (the causal agent of wheat leaf rust); assay: Test C: preventive spray on wheat seedlings, wheat leaf rust, visual disease rating; conditions: Puccinia recondita, 168 h, wheat seedlings; for pest or weed control at 10 µg/mL: test suspension 10 ppm, read-out: Test C disease control rating
Procedure, shortened: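 Wheat seedlings sprayed to run-off with compound in acetone/water (50/50) with 250 ppm PEG400, then inoculated with spores the following day. After 24 h saturated humidity at 20° C. and 6 days in growth chamber at 20° C., disease rated visually as % control relative to untreated controls.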

[3] = system: Phakopsora pachyrhizi (the causal agent of Asian soybean rust); assay: Test E: compounds alone and mixtures sprayed on soybean seedlings, Asian soybean rust, observed and Colby-expected disease control; design: key to Test E Obsd: 100 = 100% disease control, 0 = no disease control
From the text: The general protocol for preparing test compositions for TEST E was as follows: Compound 316, Compound 376, Compound 225, Compound 229, Compound 257, Compound 394, Compound 506, Compound 507, Compound 508, Compound 509, Compound 511, Compound 512, methyl N-[[5-[1-[2,6-difluoro-4-(1-methylethyl)phenyl]-1H-pyrazol-3-yl]-2-methylphenyl]methyl]carbamate (b54.11a), methyl N-[[5-[l-(4-cyclopropyl-2,6-difluorophenyl)-1H-pyrazol-3-yl]-2-methylphenyl]methyl]carbamate (b54.11d), ethyl 1-[[4-[[(1Z)-2-ethoxy-3,3,3-trifluoro-1-propen-1-yl]oxy]phenyl]methyl]-1H-pyrazole-4-carboxylate (b54.12a), ethyl 1-[[4-[[2-(trifluoromethyl)-1,3-dioxolan-2-yl]methoxy]phenyl]methyl]-1H-pyrazole-4-carboxylate (b54.13a), azoxystrobin, benzovindiflupyr, bixafen, chlorothalonil, cyproconazole, epoxiconazole, fenpropidin, fenpropimorph, fluindapyr, flutriafol, fluxapyroxad, inpyrfluxam, metominostrobin, picoxystrobin, prothioconazole, pydiflumetofen, pyraclostrobin, tebuconazole and trifloxystrobin were obtained as unformulated, technical-grade materials. Copper hydroxide and mancozeb was obtained as a formulated product marketed under the trademarks KOCIDE 3000 and MANZATE, respectively. Unformulated materials were first dissolved in acetone and then suspended at the desired concentration (in ppm) in acetone and purified water (50/50 mixture by volume) containing 250 ppm of the surfactant Trem® 014 (polyhydric alcohol esters). Formulated materials were dispersed in sufficient water to give the desired concentration, and neither organic solvent nor surfactant was added to the suspension. The resulting test mixtures were then used in TEST E. The tests were run on four individual plants and the results reported as the mean average of the four plants.
The presence of a synergistic effect between two active ingredients can be established with the aid of the Colby equation (see Colby, S. R. “Calculating Synergistic and Antagonistic Responses of Herbicide Combinations”, Weeds, (1967), 15, 20-22):
Using the method of Colby, the presence of a synergistic interaction between two active ingredients is established by first calculating the predicted activity, p, of the mixture based on activities of the two components applied alone. If p is lower than the experimentally established effect, synergism has occurred. In the equation above, A is the fungicidal activity in percentage control of one component applied alone at rate x. The B term is the fungicidal activity in percentage control of the second component applied at rate y. The equation estimates p, the expected fungicidal activity of the mixture of A at rate x with B at rate y if their effects are strictly additive and no interaction has occurred.
The test mixture was sprayed to the point of run-off on soybean seedlings. The following day the seedlings were inoculated with a spore suspension of Phakopsora pachyrhizi (the causal agent of Asian soybean rust) and incubated in a saturated atmosphere at 22° C. for 24 h and then moved to a growth chamber at 22° C. for 8 days, after which time visual disease ratings were made.
Results for Test E are given below in Tables A-1 through K-2. Each table corresponds to a set of evaluations performed together at the same time. In each table, a rating of 100 indicates 100% disease control and a rating of 0 indicates no disease control (relative to the controls). Columns labeled “Obsd” indicate the average of results observed from test run on four individual plants. Columns labeled “Exp” indicate the expected value for each treatment mixture using the Colby equation, as described above.

[4] = system: Zymoseptoria tritici (the causal agent of wheat leaf blotch); assay: Test B: preventive spray on wheat seedlings, wheat leaf blotch, visual disease rating; conditions: Zymoseptoria tritici, 456 h; test suspension 250 ppm; wheat seedlings
Procedure, shortened: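 This is a preventive test: spray application preceded Zymoseptoria tritici spore inoculation by one day. Test suspensions were in acetone/water with 250 ppm PEG400 surfactant, at the listed ppm rate. After 48 h saturated humidity at 24° C and 17 days at 20° C, visual ratings scored control from 0 to 100%.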

[5] = Table B-1, component (b) alone: bixafen 11.327, fluxapyroxad 2.757, fluindapyr 8.820 ppm
[6] = Table B-1, component (b) alone: bixafen 19.525, fluxapyroxad 4.748, fluindapyr 15.230 ppm
[7] = Table B-2, component (b) alone: bixafen 11.327, fluxapyroxad 2.757, fluindapyr 8.820 ppm
[8] = Table B-2, component (b) alone: bixafen 19.525, fluxapyroxad 4.748, fluindapyr 15.230 ppm
[9] = Phakopsora pachyrhizi, Compound 508 alone, read-out: Test E Obsd
[10] = Phakopsora pachyrhizi, applied alone, read-out: Test E Obsd

O=C(NCC(F)F)c1coc(Cc2ccc(-c3noc(C(F)(F)F)n3)cc2)n1 [Compound 225, N-(2,2-difluoroethyl)-2-[[4-[5-(trifluoromethyl)-1,2,4-oxadiazol-3-yl]phenyl]methyl]-4-oxazolecarboxamide]
pest or weed control at 10 µg/mL [1]: 100%
pest or weed control at 10 µg/mL [2]: 100%
pest or weed control at 0.589 ppm ([3]; Phakopsora pachyrhizi, applied alone, 0.589 ppm, read-out: Test E Obsd): 68%
pest or weed control at 250 µg/mL [4]: 99%

COCCNC(=O)c1coc(Cc2ccc(-c3noc(C(F)(F)F)n3)cc2)n1 [Compound 257, N-(2-methoxyethyl)-2-[[4-[5-(trifluoromethyl)-1,2,4-oxadiazol-3-yl]phenyl]methyl]-4-oxazolecarboxamide]
pest or weed control at 10 µg/mL [1]: 100%
pest or weed control at 10 µg/mL [2]: 100%
pest or weed control at 0.914 ppm ([3]; Phakopsora pachyrhizi, applied alone, 0.914 ppm, read-out: Test E Obsd): 27%
pest or weed control at 250 µg/mL [4]: 99%

CCOC(=O)c1cnn(COc2ccc(-c3noc(C(F)(F)F)n3)cc2)c1 [Compound 376, ethyl 1-[[4-[5-(trifluoromethyl)-1,2,4-oxadiazol-3-yl]phenoxy]methyl]-1H-pyrazole-4-carboxylate]
pest or weed control at 10 µg/mL [1]: 100%
pest or weed control at 10 µg/mL [2]: 68%
pest or weed control at 0.753 ppm ([3]; Phakopsora pachyrhizi, Compound 376 alone, 0.753 ppm, read-out: Test E Obsd): 53%
pest or weed control at 1.228 ppm ([3]; Phakopsora pachyrhizi, Compound 376 alone, 1.228 ppm, read-out: Test E Obsd): 78%
pest or weed control at 0.753 ppm ([3]; Phakopsora pachyrhizi, Table A-2, Compound 376 0.753 ppm alone, read-out: Test E Obsd (disease control rating)): 70%
pest or weed control at 1.228 ppm ([3]; Phakopsora pachyrhizi, Table A-2, Compound 376 1.228 ppm alone, read-out: Test E Obsd (disease control rating)): 66%
pest or weed control at 0.753 ppm ([3]; Phakopsora pachyrhizi, Table B-2, Compound 376 0.753 ppm alone, read-out: Test E Obsd (disease control rating)): 15%
pest or weed control at 1.228 ppm ([3]; Phakopsora pachyrhizi, Table B-2, Compound 376 1.228 ppm alone, read-out: Test E Obsd (disease control rating)): 21%
pest or weed control at 0.753 ppm ([3]; Phakopsora pachyrhizi, Table C-2, Compound 376 0.753 ppm alone, read-out: Test E Obsd (disease control rating)): 54%
pest or weed control at 1.228 ppm ([3]; Phakopsora pachyrhizi, Table C-2, Compound 376 1.228 ppm alone, read-out: Test E Obsd (disease control rating)): 71%
pest or weed control at 0.753 ppm ([3]; Phakopsora pachyrhizi, Table D-2, Compound 376 0.753 ppm alone, read-out: Test E Obsd (disease control rating)): 67%
pest or weed control at 1.228 ppm ([3]; Phakopsora pachyrhizi, Table D-2, Compound 376 1.228 ppm alone, read-out: Test E Obsd (disease control rating)): 68%
pest or weed control at 0.753 ppm ([3]; Phakopsora pachyrhizi, Table E-2, Compound 376 0.753 ppm alone, read-out: Test E Obsd (disease control rating)): 81%
pest or weed control at 1.228 ppm ([3]; Phakopsora pachyrhizi, Table E-2, Compound 376 1.228 ppm alone, read-out: Test E Obsd (disease control rating)): 67%
pest or weed control at 0.753 ppm ([3]; Phakopsora pachyrhizi, Table F-2, Compound 376 0.753 ppm alone, read-out: Test E Obsd (disease control rating)): 68%
pest or weed control at 1.228 ppm ([3]; Phakopsora pachyrhizi, Table F-2, Compound 376 1.228 ppm alone, read-out: Test E Obsd (disease control rating)): 77%
pest or weed control at 0.753 ppm ([3]; Phakopsora pachyrhizi, Table G-2, Compound 376 0.753 ppm alone, read-out: Test E Obsd (disease control rating)): 52%
pest or weed control at 1.228 ppm ([3]; Phakopsora pachyrhizi, Table G-2, Compound 376 1.228 ppm alone, read-out: Test E Obsd (disease control rating)): 37%
pest or weed control at 0.753 ppm ([3]; Phakopsora pachyrhizi, Table H-2, Compound 376 0.753 ppm alone, read-out: Test E Obsd (disease control rating)): 62%
pest or weed control at 1.228 ppm ([3]; Phakopsora pachyrhizi, Table H-2, Compound 376 1.228 ppm alone, read-out: Test E Obsd (disease control rating)): 81%
pest or weed control at 250 µg/mL [4]: 49%

CON(C(=O)c1cn(C)nc1C(F)F)C(C)Cc1c(Cl)cc(Cl)cc1Cl (stereo not drawn) [pydiflumetofen, reference compound]
Test E Obsd (disease control rating) ([3]; Table E-1, component (b) alone: epoxiconazole 46.795, pydiflumetofen 70.950 ppm): 0%
Test E Obsd (disease control rating) ([3]; Table E-1, component (b) alone: epoxiconazole 89.631, pydiflumetofen 135.850 ppm): 73%
Test E Obsd (disease control rating) ([3]; Table E-2, component (b) alone: epoxiconazole 46.795, pydiflumetofen 70.950 ppm): 0%
Test E Obsd (disease control rating) ([3]; Table E-2, component (b) alone: epoxiconazole 89.631, pydiflumetofen 135.850 ppm): 73%
Test E Obsd (disease control rating) ([3]; Table G-1, component (b) alone: pydiflumetofen 41.364, pyraclostrobin 45.860, metominostrobin 29.673 ppm): 49%
Test E Obsd (disease control rating) ([3]; Table G-1, component (b) alone: pydiflumetofen 128.793, pyraclostrobin 137.503, metominostrobin 86.003 ppm): 36%
Test E Obsd (disease control rating) ([3]; Table G-2, component (b) alone: pydiflumetofen 41.364, pyraclostrobin 45.860, metominostrobin 29.673 ppm): 49%
Test E Obsd (disease control rating) ([3]; Table G-2, component (b) alone: pydiflumetofen 128.793, pyraclostrobin 137.503, metominostrobin 86.003 ppm): 36%

Cn1cc(C(=O)Nc2ccccc2-c2cc(F)c(F)c(F)c2)c(C(F)F)n1 [fluxapyroxad, reference compound]
Test E Obsd (disease control rating) [3, 5]: 19%
Test E Obsd (disease control rating) [3, 6]: 52%
Test E Obsd (disease control rating) [3, 7]: 19%
Test E Obsd (disease control rating) [3, 8]: 52%

CC1CC(C)(C)c2c(F)ccc(NC(=O)c3cn(C)nc3C(F)F)c21 (stereo not drawn) [fluindapyr, reference compound]
Test E Obsd (disease control rating) [3, 5]: 61%
Test E Obsd (disease control rating) [3, 6]: 79%
Test E Obsd (disease control rating) [3, 7]: 61%
Test E Obsd (disease control rating) [3, 8]: 79%

CCNC(=O)c1cnn(COCc2ccc(-c3noc(C(F)(F)F)n3)cc2)c1 [Compound 508, N-ethyl-1-[[[4-[5-(trifluoromethyl)-1,2,4-oxadiazol-3-yl]phenyl]methoxy]methyl]-1H-pyrazole-4-carboxamide]
pest or weed control at 10 ppm ([1]; 10 ppm test suspension): 100%
pest or weed control at 10 ppm ([2]; 10 ppm test suspension, 100 = 100% disease control, 0 = no control): 100%
pest or weed control at 0.855 ppm [3, 9]: 0%
pest or weed control at 1.716 ppm [3, 9]: 52%
pest or weed control at 0.855 ppm [3, 10]: 23%
pest or weed control at 1.716 ppm [3, 10]: 60%

Cn1cc(C(=O)Nc2cccc3c2[C@@H]2CC[C@H]3C2=C(Cl)Cl)c(C(F)F)n1 (racemic) [benzovindiflupyr, reference compound]
Test E Obsd (disease control rating) ([3]; Table F-1, component (b) alone: benzovindiflupyr 0.606, prothioconazole 10.165, chlorothalonil 138.129 ppm): 67%
Test E Obsd (disease control rating) ([3]; Table F-1, component (b) alone: benzovindiflupyr 0.980, prothioconazole 16.339, chlorothalonil 222.081 ppm): 67%
Test E Obsd (disease control rating) ([3]; Table F-2, component (b) alone: benzovindiflupyr 0.606, prothioconazole 10.165, chlorothalonil 138.129 ppm): 67%
Test E Obsd (disease control rating) ([3]; Table F-2, component (b) alone: benzovindiflupyr 0.980, prothioconazole 16.339, chlorothalonil 222.081 ppm): 67%
Test E Obsd ([3]; applied alone, 0.606 ppm): 51
Test E Obsd ([3]; applied alone, 0.980 ppm): 68
